Data published in US9409939B2, “Quantification method for remaining liver function and novel liver receptor imaging agent” (INSTITUTE OF NUCLEAR ENERGY RESEARCH ATOMIC ENERGY COUNCIL, …, priority 2009, dated 2016).

How the values were obtained:
[1] = test system: normal rat cells (Clone 9); test: MTT cell toxicity test, Clone 9; type: cell-based; conditions: Clone 9, concentration 10^3 times of 0.01 μM, 24 hr, 48 hr
Description: (§1) MTT, i.e. 3-(4,5-cimethyl-thiazol-2-yl)-2,5-diphenyl tetrazolium bromide, can be metabolized by succinate dehydrogenase of cell mitochondria into blue MTT formazan, and thus is widely used to detect cell viability. The experimental method includes: adding 0, 0.001 μM, 0.01 μM, 0.1 μM, 1 μM, and 10 μM hexa-lactoside into 1×10^6 normal rat cells (Clone 9) and normal mouse cells (FL83B), respectively; after culturing for 24 hr, 48 hr, adding MTT; and 4 hr later, dissolving the cells with DMSO. The blue MTT formazan is soluble in the solution. The absorption of the solution at 570 nm is detected. With the absorption at 570 nm without adding hexa-lactoside as 100% of cell viability, the experimental groups with hexa-lactoside added are compared with the normal group without adding hexa-lactoside, to get the cell viability of the experimental groups. FIG. 10 is a comparison of cell viability of hexa-lactoside in normal rat cell (Clone 9), and FIG. 11 is a comparison of cell viability of hexa-lactoside in normal mouse cell (FL83B), in which the concentration used presently is 0.01 μM.

[2] = test system: normal mouse cells (FL83B); test: MTT cell toxicity test, FL83B; type: cell-based; conditions: concentration 10^3 times of 0.01 μM, 24 hr, 48 hr
Description: as §1

ASGPR = target: T1, ASGPR (Mus musculus, UniProt P24721+P34927); test: Competition with Eu-ASOR for binding to murine hepatocyte (time-resolved fluorescence)
T1 construct: host or cells: murine hepatocytes (purchased, plated in 24-well plates)
T1 sequence (P34927 1-284): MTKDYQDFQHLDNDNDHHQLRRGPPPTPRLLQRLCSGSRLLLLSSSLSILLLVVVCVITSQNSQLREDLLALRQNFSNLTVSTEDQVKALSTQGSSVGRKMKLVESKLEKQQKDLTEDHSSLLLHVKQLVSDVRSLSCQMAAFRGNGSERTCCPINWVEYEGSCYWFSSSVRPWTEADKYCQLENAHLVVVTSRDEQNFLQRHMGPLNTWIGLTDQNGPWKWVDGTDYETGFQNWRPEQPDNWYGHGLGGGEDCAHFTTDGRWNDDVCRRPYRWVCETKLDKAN
T1 sequence (P24721 1-301): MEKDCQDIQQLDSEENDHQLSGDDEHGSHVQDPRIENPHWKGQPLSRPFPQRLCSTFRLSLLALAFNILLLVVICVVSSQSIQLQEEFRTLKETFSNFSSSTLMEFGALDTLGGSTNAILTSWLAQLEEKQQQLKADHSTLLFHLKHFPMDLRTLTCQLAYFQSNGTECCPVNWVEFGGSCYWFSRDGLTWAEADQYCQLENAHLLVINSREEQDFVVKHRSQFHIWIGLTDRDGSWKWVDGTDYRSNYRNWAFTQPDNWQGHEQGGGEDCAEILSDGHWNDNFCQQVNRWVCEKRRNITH
Description: The murine hepatocyte (from Lonza Biotechnology Company, Maryland) is plated in a 24-well plate in advance, and the reaction occurs in each well, into which (i) Eu-ASOR 10 nM (ii) hepatocyte basic medium with 5 mM calcium chloride, and (iii) five different concentrations of saccharide chain peptide of 1 uM-0.8 nM are added. After culturing with shaking for 1 hr, the substance that has not been bound to hepatocyte is removed by washing with the hepatocyte basic medium containing calcium chloride.
Time-resolved fluorescence spectroscopy is preformed, that is, an enhancement solution (15 uM β-naphthoyl trifluoroacetone, 50 uM tri-n-octyl-phosphine oxide, 0.1% triton X-100 in 0.1M acetic acid, titrated with potassium hydrogen phthalate to pH 3.2) is added. The enhancement solution reacts with Eu^3+ to form a Eu chelate, which can emit a light of 615 nm when being excited at 340 nm. With the logarithm of the concentration of saccharide chain peptide as X axis, the emitted fluorescence value as Y axis, the fluorescence value without adding glycopeptide being set as 100%, the IC50 of each saccharide chain peptide can be calculated accordingly.

SMILES: NCCCCCC(=O)N[C@@H](CC(=O)NCCCC[C@@H](C(=O)NCCCCCCOC1O[C@H](CO)[C@@H](O[C@@H]2O[C@H](CO)[C@H](O)[C@H](O)[C@H]2O)[C@H](O)[C@H]1O)N(CC(=O)NCCCCCCOC1O[C@H](CO)[C@@H](O[C@@H]2O[C@H](CO)[C@H](O)[C@H](O)[C@H]2O)[C@H](O)[C@H]1O)CC(=O)NCCCCCCOC1O[C@H](CO)[C@@H](O[C@@H]2O[C@H](CO)[C@H](O)[C@H](O)[C@H]2O)[C@H](O)[C@H]1O)C(=O)NCCCC[C@@H](C(=O)NCCCCCCOC1O[C@H](CO)[C@@H](O[C@@H]2O[C@H](CO)[C@H](O)[C@H](O)[C@H]2O)[C@H](O)[C@H]1O)N(CC(=O)NCCCCCCOC1O[C@H](CO)[C@@H](O[C@@H]2O[C@H](CO)[C@H](O)[C@H](O)[C@H]2O)[C@H](O)[C@H]1O)CC(=O)NCCCCCCOC1O[C@H](CO)[C@@H](O[C@@H]2O[C@H](CO)[C@H](O)[C@H](O)[C@H]2O)[C@H](O)[C@H]1O (stereo partly shown) [AHA-Asp[DCM-Lys(ahLac)3]2, AHA-Asp[DCM-Lys(ah-Lac)3]2]
- cell viability (MTT) [1]: 100%
- cell viability (MTT) [2]: 100%

SMILES: CC(=O)N[C@H]1[C@H](OCCCCCCNC(=O)CNC(=O)CN(CC(=O)NCC(=O)NCCCCCCO[C@@H]2O[C@H](CO)[C@H](O)[C@H](O)[C@H]2NC(C)=O)[C@@H](CCCCN)C(=O)NCC(=O)NCCCCCCO[C@@H]2O[C@H](CO)[C@H](O)[C@H](O)[C@H]2NC(C)=O)O[C@H](CO)[C@H](O)[C@@H]1O [DCM-Lys(GahGalNAc)3, DCM-Lys(Gah-GalNAc)3]
- binding to ASGPR relative to YEE or YDD (ASGPR; compared with YEE or YDD): 10 times

SMILES: CC(=O)N[C@H]1[C@H](OCCCCCCNC(=O)CNC(=O)C[C@H](NC(=O)[C@H](CC(=O)NCC(=O)NCCCCCCO[C@@H]2O[C@H](CO)[C@H](O)[C@H](O)[C@H]2NC(C)=O)NC(=O)[C@@H](N)Cc2ccc(O)cc2)C(=O)NCC(=O)NCCCCCCO[C@@H]2O[C@H](CO)[C@H](O)[C@H](O)[C@H]2NC(C)=O)O[C@H](CO)[C@H](O)[C@@H]1O [YDD(GahGalNAc)3, reference compound]
- IC50 (ASGPR): 10 nM
